# In patent US20240115705A1, “Regulation of Butyrophilin subfamily 3 member A1 (BTN3A1, CD277)” (The J. Gladstone Institutes, a testamentary trust …, priority 2021, published 2024):
# Legend:
# [1] = test system: BTN3A1; assay: BTN3A expression genome-wide CRISPR knockout screen (FACS sort of surface BTN3A high/low cells); format: cell-based, human
# [2] = test system: BTN3A; assay: mTOR/ISR compound treatment, surface BTN3A by flow cytometry in AAVS1 and PPAT KO Daudi-Cas9 cells; format: cell-based, human; conditions: control KO (AAVS1) and purine biosynthesis KO (PPAT) Daudi-Cas9 cells, 10 μM, 72 hours
# Protocol: Daudi-Cas9 AAVS1 and PPAT KO cells (190 μL) were seeded at 250,000 cells/mL in round-bottom 96-well plates. Cells received 10 μL of DMSO (vehicle) or one of the following compounds at a final concentration of 10 μM: sephin1 (APE×BIO), ISRIB (MedChemExpress), guanabenz acetate (MedChemExpress), Sal003 (MedChemExpress), salubrinal (MedChemExpress), raphin1 acetate (MedChemExpress), and rapamycin (MilliporeSigma). Edge wells were filled with 200 μL of sterile PBS or water. After being cultured for 72 hours, the cells were stained with APC-conjugated anti-human CD277 antibody (clone BT3.1, 1:50 dilution) (Miltenyi Biotec) and 7-AAD (1:150 dilution) (Tonbo), and analyzed on the Attune NxT flow cytometer.
# [3] = test system: BTN3A; assay: Inhibitor dose response, surface BTN3A by flow cytometry in WT Daudi-Cas9 cells; format: cell-based, human; conditions: 72 hours, complete RPMI, vs vehicle
# Protocol: Daudi-Cas9 cells (180 μL) were seeded at 275,000 cells/mL in cRPMI in round-bottom 96-well plates. Twenty μL of zoledronate, rotenone (MedChemExpress), oligomycin A (Neta Scientific), FCCP (MedChemExpress), antimycin A (Neta Scientific), AICAR (Sigma), 2-DG (Sigma), Compound 991 (Selleck Chemical), A-769662 (Sigma), ethanol (vehicle), or DMSO (vehicle, at dilutions matching the treatment) at various concentrations were added to the cells. Plate edge wells were filled with 200 μL of sterile water or PBS. The cells were grown at 37° C. for 72 hours, and stained with APC-conjugated anti-human CD277 antibody (clone BT3.1, 1:50 dilution)(Miltenyi Biotec) and 7-AAD (1:150 dilution) (Tonbo). The cells were then analyzed on the Attune NxT flow cytometer.
# [4] = test system: Daudi-Cas9 cells; assay: γδ TCR tetramer staining (G115 Vγ9Vδ2 TCR clone) of Daudi-Cas9 cells; format: cell-based, human; conditions: WT Daudi-Cas9 cells, 72 hours
# Description: The G115 Vγ9Vδ2 TCR clone tetramer was generated using the following methods. The G115 γ-[…] chain sequence (Davodeau et al. J. Immunol. 151, 1214-1223 (1993)) was cloned into the pAcGP67A vector with a C-terminal acidic zipper, and the G115 δ-chain sequence (Davodeau et al. (1993)) as cloned into the pAcGP67A vector with a C-terminal AviTag followed by a basic zipper. Zippers stabilized the TCR complex. The TCR was expressed in the High Five baculovirus insect-cell expression system and purified via affinity chromatography over a Ni-NTA column. TCRs were biotinylated and biotinylation was confirmed using a TrapAvidin SDS-PAGE assay. The G115 TCR was then further purified using size-exclusion chromatography (Superdex200 100/300 GL column, GE Healthcare) and purity was confirmed via SDS-PAGE. Tetramers were generated by incubating biotinylated TCR with streptavidin conjugated to the PE fluorophore.
# Daudi-Cas9 KO cells were analyzed 13 and 14 days post-lentiviral transduction. WT Daudi-Cas9 cells were analyzed after being cultured for 72 hours with 0.5 mM AICAR, 80 μM Compound 991, DMSO (vehicle control at the concentration matching Compound 991), or nothing. […] Stained cells were analyzed on the Attune NxT flow cytometer.
# [5] = test system: BTN2A1 transcripts; assay: RT-qPCR of drug-treated Daudi-Cas9 cells, BTN2A1; format: cell-based, human; conditions: 80 PM, 72 hours, normalized to ACTB and DMSO
# Protocol: (§1) For measurement on Daudi-Cas9 KOs, samples were collected at 13 days after lentiviral transduction. For measurements on drug-treated WT Daudi-Cas9 cells, 180 μL of Daudi-Cas9 cells were seeded in a round-bottom 96-well plate at 275,000 cells/mL. All surrounding wells were filled with 200 μL of sterile PBS or water. With four replicates per treatment, cells were treated with 20 μL of AICAR (final concentration 0.5 mM), Compound 991 (final concentration 80 PM), DMSO, or water. The cells were collected for RT-qPCR measurements after 72 hours of incubation. RNA was extracted from approximately 70,000 cells per sample using the Quick-RNA 96 Kit (Zymo Research) or Direct-zol RNA Microprep Kit (Zymo) according to the manufacturer's protocol without the optional on-column DNase I treatment. According to the manufacturer's protocol, 1 μL of RNA was immediately processed using the Maxima First Strand cDNA Synthesis Kit for RT-qPCR with the dsDNase treatment (Thermo Fisher). Two cDNA synthesis reactions, in addition to a reverse transcriptase minus (RT−) negative control reaction, were performed for each biological replicate. […] Ct values across the three technical replicates for each sample were assessed for significant outliers resulting from technical failures (any samples in triplicate with a standard deviation above 0.2 were assessed) and subsequently averaged. […]
# [6] = test system: BTN3A1 transcripts; assay: RT-qPCR of drug-treated Daudi-Cas9 cells, BTN3A1; format: cell-based, human; conditions: 80 PM, 72 hours, normalized to ACTB and DMSO
# Protocol: as §1
# [7] = test system: BTN3A2 transcripts; assay: RT-qPCR of drug-treated Daudi-Cas9 cells, BTN3A2; format: cell-based, human; conditions: 80 PM, 72 hours, normalized to ACTB and DMSO
# Protocol: as §1
# [8] = test system: BTN3A; assay: Compound C dose response in combination with AICAR or OXPHOS inhibition, surface BTN3A; format: cell-based, human; set-up: BTN3A levels vs vehicle control: dose or concentration left out as unconfirmed
# Protocol: Daudi-Cas9 cells (170 μL) were seeded at 292,000 cells/mL in cRPMI in round-bottom 96-well plates. Ten μL of Compound C (Abcam) were added to all the cells at various concentrations. At indicated concentrations, 20 μL of rotenone, oligomycin A, FCCP, 2-DG, AICAR, or cRPMI (control) were added to the wells that received Compound C. Ten μL of DMSO at dilutions matching Compound C and 20 μL of cRPMI were added to the DMSO-only vehicle control wells. Plate edge wells were filled with 200 μL of sterile water or PBS. The cells were grown at 37° C. for 72 hours, stained with APC-conjugated anti-human CD277 antibody (clone BT3.1, 1:50 dilution) (Miltenyi Biotec) and 7-AAD (1:150 dilution) (Tonbo), and analyzed on the Attune NxT flow cytometer.
# [9] = biological target: BTN2A1-BTN3A1-BTN3A2 cell surface complex on Daudi-Cas9 cells (human; Homo sapiens) (UniProt Q7KYR7); assay: flow cytometry, PE-TCR tetramer (160 nM) staining of WT Daudi-Cas9 cells treated 72 h with 80 µM Compound 991 against DMSO
# [10] = biological target: BTN2A1-BTN3A1-BTN3A2 cell surface complex on Daudi-Cas9 cells (human; Homo sapiens) (UniProt Q7KYR7); assay: flow cytometry, PE-TCR tetramer (160 nM) staining of WT Daudi-Cas9 cells treated 72 h with 0.5 mM AICAR against untreated cells
# Sequence of UniProt Q7KYR7 (Q7KYR7 29-527, chain 1 of 3): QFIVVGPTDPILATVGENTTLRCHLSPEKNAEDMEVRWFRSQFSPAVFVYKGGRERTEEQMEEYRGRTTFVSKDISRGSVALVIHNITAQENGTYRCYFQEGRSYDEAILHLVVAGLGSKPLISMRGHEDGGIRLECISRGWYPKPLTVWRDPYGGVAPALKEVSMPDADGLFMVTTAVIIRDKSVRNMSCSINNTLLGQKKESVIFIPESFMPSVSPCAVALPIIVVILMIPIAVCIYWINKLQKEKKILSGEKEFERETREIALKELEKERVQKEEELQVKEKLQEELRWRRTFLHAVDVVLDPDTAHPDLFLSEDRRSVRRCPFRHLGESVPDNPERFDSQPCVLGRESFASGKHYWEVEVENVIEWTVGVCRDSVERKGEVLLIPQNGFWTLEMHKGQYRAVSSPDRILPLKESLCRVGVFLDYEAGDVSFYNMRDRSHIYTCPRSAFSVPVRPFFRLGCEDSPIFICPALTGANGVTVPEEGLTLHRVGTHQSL
# Sequence of UniProt Q7KYR7 (chain, as listed by the source, chain 2 of 3): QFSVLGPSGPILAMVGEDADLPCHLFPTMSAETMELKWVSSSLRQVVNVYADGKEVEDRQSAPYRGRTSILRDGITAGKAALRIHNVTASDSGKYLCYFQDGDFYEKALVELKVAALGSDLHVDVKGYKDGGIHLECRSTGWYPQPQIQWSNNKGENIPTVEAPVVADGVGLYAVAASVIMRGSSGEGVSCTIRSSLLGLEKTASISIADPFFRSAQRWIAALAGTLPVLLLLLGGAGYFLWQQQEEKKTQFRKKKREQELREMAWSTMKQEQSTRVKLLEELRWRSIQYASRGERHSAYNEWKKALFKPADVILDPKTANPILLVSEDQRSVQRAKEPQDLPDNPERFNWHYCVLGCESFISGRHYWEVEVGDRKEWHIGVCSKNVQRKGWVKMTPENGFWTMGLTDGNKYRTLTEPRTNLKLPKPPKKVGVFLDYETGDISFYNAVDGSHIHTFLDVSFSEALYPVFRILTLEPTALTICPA
# Sequence of UniProt Q7KYR7 (chain, as listed by the source, chain 3 of 3): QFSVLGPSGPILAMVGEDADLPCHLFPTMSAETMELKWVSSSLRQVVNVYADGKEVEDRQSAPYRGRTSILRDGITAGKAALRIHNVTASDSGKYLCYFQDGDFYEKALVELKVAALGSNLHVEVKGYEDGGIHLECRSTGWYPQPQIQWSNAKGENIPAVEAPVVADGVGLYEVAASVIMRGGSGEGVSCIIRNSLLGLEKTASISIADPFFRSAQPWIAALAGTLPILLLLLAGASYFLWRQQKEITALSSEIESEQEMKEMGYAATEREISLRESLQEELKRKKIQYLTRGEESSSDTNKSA
molecule,measurement,setting,value
RPIA,Log2 Fold Change,"[1]; gene knockout in Daudi cells expressing Cas9, genome wide CRISPR knockout screen sorted on surface BTN3A1, Table 1 Negative Regulators of BTN3A1",−1.4533
NC(N)=N/N=C/c1cccc(Cl)c1Cl [raphin1],BTN3A surface expression,[2],negligible effects
Cc1ccc(Oc2nc3cc(-c4ccc5c(ccn5C)c4)c(Cl)cc3[nH]2)cc1C(=O)O [Compound 991],surface BTN3A (MFI),[3],Upregulation of surface BTN3A
same,staining with G115 Vγ9Vδ2 TCR tetramer compared to vehicle control-treated cells,[4]; 80 μM,about five times higher
same,BTN2A1 transcript level by qPCR,[5],transcriptionally upregulated
same,BTN3A1 transcript level by qPCR,[6],transcriptionally upregulated
same,BTN3A2 transcript level by qPCR,[7],transcriptionally upregulated
O=C(/C=C/c1ccccc1)NC(NC(=S)Nc1cccc2cccnc12)C(Cl)(Cl)Cl (stereo not shown) [salubrinal],BTN3A surface expression,[2],negligible effects
N=C(N)N/N=C/c1c(Cl)cccc1Cl [guanabenz],BTN3A surface expression,[2],negligible effects
c1cc(-c2cnn3cc(-c4ccc(OCCN5CCCCC5)cc4)cnc23)ccn1 [Compound C],"BTN3A upregulation caused by OXPHOS inhibition (rotenone, oligomycin, FCCP) or glycolysis inhibition (2-DG)","[8]; WT Daudi-Cas9 cells co-treated with Compound C, 72 hours",neutralized
same,AICAR-induced BTN3A upregulation,"[8]; WT Daudi-Cas9 cells co-treated with increasing amounts of Compound C and AICAR, 72 hours",decreased the AICAR-induced BTN3A upregulation
same,BTN3A levels vs vehicle control,"[8]; co-treated with AICAR, Compound C",falling well below those observed in the vehicle control
O=C(/C=C/c1ccccc1)NC(NC(=S)Nc1ccc(Cl)cc1)C(Cl)(Cl)Cl (stereo not shown) [Sal003],BTN3A surface expression,[2],downregulation
COQ2,Log2 Fold Change,"[1]; Table 2, positive regulators of BTN3A1, gene knockout in Daudi-Cas9 cells, FACS sort on surface BTN3A1 (anti-BTN3A1 clone BT3.1), three replicates",1.1343
O=C(COc1ccc(Cl)cc1)NC1CCC(NC(=O)COc2ccc(Cl)cc2)CC1 (stereo not shown) [ISRIB],BTN3A surface expression,[2],negligible effects
PE-conjugated Vγ9Vδ2 TCR (clone G115) tetramer (from UniProt P22629 37-163),fold tetramer staining against vehicle control-treated cells,[9],5 fold
same,percent increase of tetramer staining,[10],40 to 80%
"NC(=O)c1ncn([C@@H]2O[C@H](CO)[C@@H](O)[C@H]2O)c1N [AICAR, N^1-(β-D-Ribofuranosyl)-5-aminoimidazole-4-carboxamide]",surface BTN3A (MFI),[3],dramatic increase in surface BTN3A
same,increase in G115 Vγ9Vδ2 TCR tetramer staining,[4]; 0.5 mM,40-80%
